The conditions of series [1]: 101.33 kPa, Liquid.
The nature of series [2]: refractive index (Na D-line) (dimensionless). The note with it: 101.33 kPa, Liquid, Standard Abbe refractometry.
Series [3] can be described thus: molar heat capacity at constant pressure. The note with it: 101.33 kPa, Liquid, Small sample (50 mg) DSC.

± gives the expanded uncertainty stated by the source.

In general, mass density refers to mass per unit of volume. One may read the viscosity as the resistance of a fluid to flow. The refractive index is the speed of light in vacuum divided by its phase velocity in the sample. As to `CC1CCCO1` (stereo unspecified) [2-methyltetrahydrofuran], the mass density in series [1] (293.15 K) is recorded as 853.15 ± 0.68 kg/m3; in series [1] (303.15 K), 842.8 ± 0.7 kg/m3; in series [1] (313.15 K), 832.44 ± 0.72 kg/m3. Further, the viscosity in series [1] (293.15 K) is 0.492 ± 0.008 mPa·s; in series [1] (303.15 K) it was 0.443 ± 0.008 mPa·s; in series [1] (313.15 K), 0.416 ± 0.007 mPa·s. Also, the results for the refractive index in series [2] (293.15 K), in series [2] (303.15 K) and in series [2] (313.15 K) were 1.4085 ± 0.0008, 1.4017 ± 0.0007 and 1.3959 ± 0.0007, respectively. Further, the “molar heat capacity at constant pressure” value in series [3] (288.15 K) turned out to be 153.5 ± 2.4 J/K/mol; in series [3] (293.15 K) it was 155.3 ± 2.4 J/K/mol; in series [3] (298.15 K), 156.9 ± 2.4 J/K/mol; in series [3] (303.15 K), 158.7 ± 2.5 J/K/mol; in series [3] (308.15 K) it was 160.2 ± 2.5 J/K/mol; in series [3] (313.15 K), 162.1 ± 2.5 J/K/mol. Moreover, the “molar heat capacity at constant pressure” value amounted to 164.2 ± 2.5 J/K/mol in series [3] (318.15 K) and 166.2 ± 2.6 J/K/mol in series [3] (323.15 K).
For `C[S+](C)[O-]` [dimethyl sulfoxide], the mass density in series [1] (293.15 K) came to 1100.42 ± 0.23 kg/m3; in series [1] (303.15 K) it was 1090.41 ± 0.22 kg/m3; in series [1] (313.15 K), 1080.26 ± 0.21 kg/m3. Besides, the viscosity in series [1] (293.15 K) amounted to 2.213 ± 0.033 mPa·s; in series [1] (303.15 K), 1.812 ± 0.027 mPa·s; in series [1] (313.15 K), 1.513 ± 0.023 mPa·s. Further, the refractive index in series [2] (293.15 K) was 1.4815 ± 0.0007; in series [2] (303.15 K) it was 1.475 ± 0.0007; in series [2] (313.15 K), 1.4706 ± 0.0006. The “molar heat capacity at constant pressure” value in series [3] (288.15 K) was found to be 149.9 ± 2.3 J/K/mol; in series [3] (293.15 K), 150.4 ± 2.3 J/K/mol; in series [3] (298.15 K), 151.5 ± 2.3 J/K/mol; in series [3] (303.15 K) it was 152.2 ± 2.4 J/K/mol; in series [3] (308.15 K), 152.9 ± 2.4 J/K/mol; in series [3] (313.15 K), 153.7 ± 2.4 J/K/mol. The “molar heat capacity at constant pressure” value in series [3] (318.15 K) is on record as 154.7 ± 2.4 J/K/mol; in series [3] (323.15 K), 155.6 ± 2.4 J/K/mol.
Take `C1CCOCC1` [tetrahydropyran]: the figures for the mass density in series [1] (293.15 K), in series [1] (303.15 K) and in series [1] (313.15 K) were 883.79 ± 0.62 kg/m3, 873.95 ± 0.64 kg/m3 and 863.62 ± 0.66 kg/m3, respectively. Also, the viscosity came to 0.875 ± 0.014 mPa·s in series [1] (293.15 K), 0.752 ± 0.012 mPa·s in series [1] (303.15 K) and 0.658 ± 0.011 mPa·s in series [1] (313.15 K). For the same compound, the refractive index in series [2] (293.15 K) is listed as 1.4235 ± 0.0008; in series [2] (303.15 K), 1.4171 ± 0.0007; in series [2] (313.15 K), 1.4119 ± 0.0007. In addition, the “molar heat capacity at constant pressure” value in series [3] (288.15 K) came out at 143.4 ± 2.2 J/K/mol; in series [3] (293.15 K), 145.2 ± 2.3 J/K/mol; in series [3] (298.15 K) it was 147.8 ± 2.3 J/K/mol; in series [3] (303.15 K), 150.2 ± 2.3 J/K/mol; in series [3] (308.15 K), 152.6 ± 2.4 J/K/mol; in series [3] (313.15 K) it was 156 ± 2.4 J/K/mol. Also, the entries for the “molar heat capacity at constant pressure” value in series [3] (318.15 K) and in series [3] (323.15 K) were 157.6 ± 2.4 J/K/mol and 159.9 ± 2.5 J/K/mol, respectively.

The values above are taken from the NIST ThermoML archive (doi:10.1021/je600557n).
